The assay addresses T1, cathepsin K (Homo sapiens, UniProt P43235).
T1 construct: the active enzyme was obtained as the enzyme fraction by using detergent containing lysis buffer; made in house; host or cells: HEK293T (GenHunter Corporation), transient expression; detergent lysate used as enzyme fraction
T1 sequence (P43235 115-329): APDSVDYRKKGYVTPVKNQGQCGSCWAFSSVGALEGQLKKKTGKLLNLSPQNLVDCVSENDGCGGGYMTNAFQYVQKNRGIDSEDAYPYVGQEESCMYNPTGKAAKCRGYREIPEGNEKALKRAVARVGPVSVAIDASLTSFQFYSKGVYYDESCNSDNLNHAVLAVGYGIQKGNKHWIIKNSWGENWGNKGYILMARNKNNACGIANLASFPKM
Description: Cathepsin K inhibitory activity (fluorescent substrate Z-Leu-Arg-MCA). It is filed as biochemical. To be noted: enzyme expressed in HEK293T; 15 min preincubation, 30 min reaction at room temperature, pH 5.5; read-out: Activity Intensity (cathepsin K inhibitory activity, pIC50 class) (converted). The method, then: Cathepsin K inhibitory activities of the compounds synthesized according to the methods of the above examples were measured.
Cathepsin K used for evaluation of inhibitory activity was transiently expressed in an animal cell HEK293T (made by GenHunter Corporation) and the active enzyme was obtained as the enzyme fraction by using detergent containing lysis buffer.
The enzyme solution A was prepared at 2.1 times final concentration by diluting the enzyme fraction with assay buffer (50 mM sodium acetate, 50 mM sodium chloride, 2 mM DTT, pH 5.5). The test compound solutions B were prepared at 50 times final target concentrations by dimethylsulfoxide (DMSO). As a substrate solution C, a solution of a fluorescent substrate, benzyloxycarbonyl-L-leucyl-L-arginyl-4-methyl-coumaryl-7-amide (Z-Leu-Arg-MCA (Peptide Institute Inc.), was prepared at 10 μM by an assay buffer.
To the enzyme solution A (38.4 μL) were added the test compound solutions B (1.6 μL) and mixed individually. The mixtures were incubated at room temperature for 15 minutes. To the incubated solutions were added the substrate solution C (40 μL) and the mixtures were reacted at room temperature for 30 minutes respectively. The fluorescence intensities of the enzyme reaction solutions were measured at excitation wavelength of 355 nm and measurement wavelength of 460 nm and the enzyme activities were calculated from these fluorescence intensities caused by 7-amino-4-methylcoumarine released. The enzyme activity with using DMSO instead of the test compound solution B was taken as 100% and the inhibitory rates at each concentration of the test compound were calculated. The […] response curve was fitted to the plots. The 50% inhibitory concentration against cathepsin K was calculated from this curve.
Note that the symbols (+, ++, and +++) in this table represent the inhibitory activity values as below. Here, pIC50 is the value representing a negative logarithm of IC50, (−log10(IC50)). IC50 is a 50% inhibitory concentration.

Structures are written as SMILES.

Take `CC(C)C[C@H](N[C@@H](c1ccc(S(C)(=O)=O)cc1)C(F)(F)F)C(=O)N[C@@H](C)CNc1ccc(N2CCOCC2)cc1` [Compound 73]: the IC50 is not above 3.16 nM.
The same measure for `CC[C@@H](CNc1ccc(-n2cccn2)cc1)NC(=O)[C@H](CC(C)C)N[C@@H](c1ccccc1)C(F)(F)F` [Compound 47]: 31.6 to 10000 nM; for `COc1ccc(NC[C@H](CCS(C)(=O)=O)NC(=O)[C@H](CC(C)C)N[C@@H](c2ccc(OC)nc2)C(F)(F)F)c(OC)c1` [Compound 84]: 31.6 to 10000 nM; for `CC(C)C[C@H](N[C@@H](c1cccnc1)C(F)(F)F)C(=O)N[C@@H](C)CNc1ccc(N2CCOCC2)cc1` [Compound 74]: not above 3.16 nM.
The same measure for `COc1ccc(NC[C@H](CO)NC(=O)[C@H](CC(C)(C)F)N[C@@H](c2ccc(-c3ccc(S(C)(=O)=O)cc3)cc2)C(F)(F)F)cc1` [Compound 3, N-((1R)-2-hydroxy-1-{[(4-methoxyphenyl)amino]methyl}ethyl)(2S)-2-[((1S)-2,2,2-trifluoro-1-{4-[4-(methylsulfonyl)phenyl]phenyl}ethyl)amino]-4-fluoro-4-methylpentanamide]: 3.16 to 31.6 nM; for `CC[C@@H](CNc1ccc(N2CCOCC2)cc1)NC(=O)[C@H](CC(C)C)N[C@@H](c1ccc(OCCOC)cc1)C(F)(F)F` [Compound 30]: not above 3.16 nM.
`CC[C@@H](CNc1ccc(OCCO)cc1OC)NC(=O)[C@H](CC(C)(C)F)N[C@@H](c1ccccc1)C(F)(F)F` [Compound 42]: the IC50 is not above 3.16 nM.
For `CC[C@@H](CNc1ccc(OCC(=O)O)cc1OC)NC(=O)[C@H](CC(C)C)N[C@@H](c1ccc(=O)[nH]c1)C(F)(F)F` [Compound 123] the value was 3.16 to 31.6 nM.
Consider `COc1ccc(NC[C@H](C)NC(=O)[C@H](CC(C)C)N[C@@H](c2ccc(=O)[nH]c2)C(F)(F)F)c(OC)c1` [Compound 76], for which the IC50 is 3.16 to 31.6 nM.
For `CC[C@@H](CNc1ccc(N(C)C)cc1)NC(=O)[C@H](CC(C)(C)F)N[C@@H](c1ccc(Br)cc1)C(F)(F)F` [Compound 13] the value was not above 3.16 nM.
For `CC(C)C[C@H](N[C@@H](c1ccccc1)C(F)(F)F)C(=O)N[C@@H](CCCCNC(=O)OCc1ccccc1)CNc1ccc(N2CCOCC2)cc1` [Compound 102] the value was not above 3.16 nM; for `CC[C@@H](CNc1ccc(N2CCO[C@@H](C(=O)OC)C2)cc1)NC(=O)[C@H](CC(C)C)N[C@@H](c1ccccc1)C(F)(F)F` [Compound 56], not above 3.16 nM.
The same measure for `COc1ccc(NC[C@H](CC(C)C)NC(=O)[C@H](Cc2ccccc2)N[C@@H](c2ccccc2)C(F)(F)F)c(OC)c1` [Compound 63]: 31.6 to 10000 nM; for `CC[C@@H](CNc1ccc(OCC(=O)OCc2ccccc2)cc1OC)NC(=O)[C@H](CC(C)(C)F)N[C@@H](c1ccc(Br)cc1)C(F)(F)F` [Compound 20, Phenylmethyl 2-{4-[((2S)-2-{(2S)-2-{[(1S)-2,2,2-trifluoro-1-(4-bromophenyl)ethyl]amino}-4-fluoro-4-methylpentanoylamino}butyl)amino]-3-methoxyphenoxy}acetate]: not above 3.16 nM; for `COc1ccc(NC[C@H](CCS(C)(=O)=O)NC(=O)[C@H](CC(C)C)N[C@@H](c2cccnc2)C(F)(F)F)c(OC)c1` [Compound 83]: 3.16 to 31.6 nM.
On to `COc1ccc(NC[C@H](C)NC(=O)[C@H](CC(C)C)N[C@@H](c2ccc(S(C)(=O)=O)cc2)C(F)(F)F)c(OC)c1` [Compound 77], for which the IC50 is 3.16 to 31.6 nM.
For `CC(C)(F)C[C@H](N[C@@H](c1ccccc1)C(F)(F)F)C(=O)N[C@@H](CCC#N)CNc1ccc(N2CCOCC2)cc1` [Compound 94] the value was not above 3.16 nM.
For `CC[C@@H](CNc1ccc(N2CCCC2=O)cc1)NC(=O)[C@H](CC(C)C)N[C@@H](c1ccc(OC)nc1)C(F)(F)F` [Compound 54] the value was 3.16 to 31.6 nM; for `CCOC(=O)C1(C(C)C)CCN(c2ccc(NC[C@H](CC)NC(=O)[C@H](CC(C)C)N[C@@H](c3ccccc3)C(F)(F)F)cc2)CC1` [Compound 109], not above 3.16 nM; for `CC[C@@H](CNc1ccc(OCC(F)(F)F)cc1)NC(=O)[C@H](CC(C)C)N[C@@H](c1ccccc1)C(F)(F)F` [Compound 90], 31.6 to 10000 nM.
The same measure for `CC[C@@H](CNc1ccc(OC)cc1OC)NC(=O)[C@H](CC(C)(C)C)N[C@@H](c1ccccc1)C(F)(F)F` [Compound 59]: not above 3.16 nM; for `CC[C@@H](CNc1ccc(N2CCOCC2)cc1)NC(=O)[C@H](Cc1ccccc1)N[C@@H](c1ccccc1)C(F)(F)F` [Compound 58]: 31.6 to 10000 nM; for `COc1ccc(NC[C@H](C)NC(=O)[C@H](CC(C)C)N[C@@H](c2ccccc2)C(F)(F)F)c(OC)c1` [Compound 70]: not above 3.16 nM.
With `CC[C@@H](CNc1ccc(N2C[C@@H](C)O[C@@H](C)C2)cc1)NC(=O)[C@H](CC(C)C)N[C@@H](c1ccc(OC)nc1)C(F)(F)F` [Compound 52], the IC50 is not above 3.16 nM.
In the case of `CC[C@@H](CNc1ccc(N2CCOCC2)cc1)NC(=O)[C@H](CC(C)C)N[C@@H](c1ccc(Cl)cc1)C(F)(F)F` [Compound 34], the IC50 is not above 3.16 nM.
The same measure for `CC[C@@H](CNc1ccc(N2CCOCC2)cc1)NC(=O)[C@H](CC(C)(C)F)N[C@@H](c1ccc(-c2ccc(S(C)(=O)=O)cc2)cc1)C(F)(F)F` [Compound 9, (2S)—N-((1S)-1-{[(4-morpholin-4-ylphenyl)amino]methyl}propyl)-2-[((1S)-2,2,2-trifluoro-1-{4-[4-(methylsulfonyl)phenyl]phenyl}ethyl)amino]-4-fluoro-4-methylpentanamide]: not above 3.16 nM; for `CC[C@@H](CNc1ccc(OCCS(C)(=O)=O)cc1OC)NC(=O)[C@H](CC(C)C)N[C@@H](c1cccnc1)C(F)(F)F` [Compound 39]: 3.16 to 31.6 nM.
The same measure for `CC[C@H](N[C@@H](CC(C)C)C(=O)N[C@@H](CCS(C)(=O)=O)CNc1ccc(OC)cc1OC)C(F)(F)F` [Compound 116]: 31.6 to 10000 nM; for `CC[C@@H](CNc1ccc(OC)cc1OC)NC(=O)C1(N[C@@H](c2ccccc2)C(F)(F)F)CCCC1` [Compound 28]: 31.6 to 10000 nM.
The same measure for `CC[C@@H](CNc1ccc(OC(C)C(=O)OC)cc1OC)NC(=O)[C@H](CC(C)(C)F)N[C@@H](c1ccccc1)C(F)(F)F` (stereo partly drawn) [Compound 21, Methyl 2-{4-[((2S)-2-{(2S)-2-[((1S)-2,2,2-trifluoro-1-phenylethyl)amino]-4-fluoro-4-methylpentanoylamino}butyl)amino]-3-methoxyphenoxy}propanoate]: 3.16 to 31.6 nM.
With `CC[C@@H](CNc1ccc(N2CCOCC2)cc1)NC(=O)[C@H](CC(C)C)N[C@@H](c1ccc(N(C)C)cc1)C(F)(F)F` [Compound 35], the IC50 is not above 3.16 nM.
For `CC[C@@H](CNc1ccc(-c2ccccc2)cc1)NC(=O)[C@H](CC(C)C)N[C@@H](c1ccccc1)C(F)(F)F` [Compound 45] the value was 31.6 to 10000 nM.
For `CC[C@@H](CNc1ccc(N2C[C@@H](C)O[C@@H](C)C2)cc1)NC(=O)[C@H](CC(C)C)N[C@@H](c1ccccc1)C(F)(F)F` [Compound 51] the value was not above 3.16 nM; for `CC[C@@H](CNc1ccc(OC)cc1OC)NC(=O)[C@H](CC(C)C)N[C@@H](c1ccc(O)cc1)C(F)(F)F` [Compound 157, (2S)—N-((1S)-1-{[(2,4-dimethoxyphenyl)amino]methyl}propyl)-2-{[(1S)-2,2,2-trifluoro-1-(4-hydroxyphenyl)ethyl]amino}-4-methylpentanamide], 3.16 to 31.6 nM.

Source of the values: patent US20090291945A1, “CYSTEINE PROTEASE INHIBITORS” (Teijin Pharma Limited, priority 2008, published 2009).
